Measurements from US11459331B2, “Chemical compounds” (Avista Pharma Solutions, Inc., priority 2019, dated 2022).

The compounds below were run against T1, human EP4 receptor (Homo sapiens, UniProt P35408) (assay: human EP4 receptor antagonist screen (Eurofins Cerep; cAMP HTRF, PGE2 30 nM stimulus, CHO cells)). Conditions: at 100 nM, EP4(h) antagonist effect, human recombinant (CHO cells), 10 min RT, read-out: % inhibition of control reference agonist response (PGE2).
T1 construct: Eurofins Cerep
Assay type: cell-based
Procedure: Compounds were assayed at Eurofins Cerep using the human EP4 receptor antagonist screen. Cellular antagonist effect was calculated as a % inhibition of control reference agonist response for each target (PGE2). In each EP4(h) experiment, a reference antagonist compound, GW627368X, was tested concurrently with the test compounds, and the data were compared with historical values determined at Eurofins. The experiments were accepted in accordance with Eurofins validation Standard Operating Procedure.

T1 sequence (P35408 whole entry): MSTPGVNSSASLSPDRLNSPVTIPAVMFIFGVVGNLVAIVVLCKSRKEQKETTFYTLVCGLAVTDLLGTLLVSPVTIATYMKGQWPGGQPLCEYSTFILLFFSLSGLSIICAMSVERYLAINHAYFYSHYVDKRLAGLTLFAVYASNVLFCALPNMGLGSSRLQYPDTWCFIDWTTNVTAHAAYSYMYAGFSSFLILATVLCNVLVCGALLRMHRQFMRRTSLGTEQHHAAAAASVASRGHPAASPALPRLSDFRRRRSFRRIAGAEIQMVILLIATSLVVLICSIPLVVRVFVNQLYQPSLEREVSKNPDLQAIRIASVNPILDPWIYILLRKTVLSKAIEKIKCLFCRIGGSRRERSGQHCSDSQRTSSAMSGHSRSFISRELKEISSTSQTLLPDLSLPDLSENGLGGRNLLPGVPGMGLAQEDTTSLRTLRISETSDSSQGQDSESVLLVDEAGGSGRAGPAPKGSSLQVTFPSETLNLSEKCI

inhibition at 0.1 µM	SMILES
≥ 50%	CCc1nc2c(C)nc(C)cn2c1-c1ccc(CCNC(=O)NS(=O)(=O)c2ccccc2C)cc1 [Compound 2, 1-[2-[4-(2-ethyl-6,8-dimethyl-imidazo[1,2-a]pyrazin-3-yl)phenyl]ethyl]-3-(o-tolylsulfonyl)urea]
≥ 50%	CCc1nc2c(C)nc(C)cn2c1-c1ccc(CCNC(=O)NS(=O)(=O)c2ccc(Cl)cc2)cc1 [Compound 1, 1-(4-chlorophenyl)sulfonyl-3-[2-[4-(2-ethyl-6,8-dimethyl-imidazo[1,2-a]pyrazin-3-yl)phenyl]ethyl]urea]
≥ 50%	CCc1nc2c(C)nc(-c3ccncc3)cn2c1-c1ccc(CCNC(=O)NS(=O)(=O)c2ccc(C)cc2)cc1 [Compound 13, 1-[2-[4-[2-ethyl-8-methyl-6-(4-pyridyl)imidazo[1,2-a]pyrazin-3-yl]phenyl]ethyl]-3-(p-tolylsulfonyl)urea]
≥ 50%	Cc1ccc(S(=O)(=O)NC(=O)NCCc2ccc(-c3c(-c4ccon4)nc4c(C)nc(C)cn34)cc2)cc1 [Compound 15, 1-[2-[4-(2-isoxazol-3-yl-6,8-dimethyl-imidazo[1,2-a]pyrazin-3-yl)phenyl]ethyl]-3-(p-tolylsulfonyl)urea]
